For 11 compounds, Taste profile results are on record in patent publication US20060068071A1, “Saturated and unsaturated N-alkamides exhibiting taste and flavor enhancement effect in flavor compositions” (priority 2004, published 2006).

The structures appear in SMILES notation.

This assay is described as follows: Organoleptic properties (taste profile) of the amides. The source says: More specifically, examples of the organoleptic properties for the dienalkylamides of our invention are as follows: […]
Setting [1] is: Formula II compounds, at 10 ppm.

On to `CC/C=C\CC/C=C/CNC(=O)C1CC1`, for which, where the note is “Formula I compounds”, the Taste profile entry is “Moderate Umami, off fish oily character”.

As to `CCCCC/C=C\CC/C=C/CNC(=O)C1CC1`, where the note is “Formula I compounds”, the Taste profile entry is “Oily, moderate umami”.

`CC/C=C\CC/C=C(\C)CNC(C)=O`: under “Formula I compounds, at 10 ppm”, the Taste profile entry is given as “Potent warming at 10 ppm”.

For `CC(C)=CCC/C(C)=C/CNC(=O)C1CC1`, the Taste profile result (Formula II compounds) was “Salt, MSG, Umami, mouthfeel, lasting sweetness”.

Regarding `CC(C)=CCC/C(C)=C\CNC(=O)C1CC1`, the Taste profile result (Formula II compounds) was “Salty, MSG, Umami, brothy, mouthfeel, sweetness”.

As for `CC(C)=CCC/C(C)=C/CNC(=O)C(C)C`, for the setting “Formula II compounds”, the Taste profile result is “Some salt enhancement, umami and strong MSG effect, sweet end profile”.

Regarding `CC(C)=CCC/C(C)=C\CNC(=O)C(C)C`, under “Formula II compounds”, the Taste profile entry is listed as “Salt enhancement, MSG enhancement, Umami, brothy, sweet end profile”.

For `C/C=C/C(=O)NC/C=C(\C)CCC=C(C)C`, the Taste profile result (Formula II compounds) was “Moderate umami, salt like, lemon character”.

For the compound `C/C=C/C(=O)NC/C=C(/C)CCC=C(C)C`, under “Formula II compounds”, the Taste profile entry was “Moderate umami, some saltiness”.

As for `CC(C)=CCC/C(C)=C/CNC(=O)C=C(C)C`, the Taste profile result under setting [1] is listed as “Clean, weak umami effect at 10 ppm”.

For the compound `CC(C)=CCC/C(C)=C\CNC(=O)C=C(C)C`, the Taste profile result under setting [1] is given as “Clean, weak umami effect at 10 ppm”.
